From paper PMC7948503, “Optimization of a peptide ligand for the adhesion GPCR ADGRG2 provides a potent tool to explore receptor biology” (The Journal of Biological Chemistry, 2020)
One block for each molecule: values may come before it. Starred links: 1 amine or outer side, 2 acyl side, 3 side chain; linkers in the order of their positions; H or OH if unused. Positions of bridges follow the written chain, without caps; N, C: chain ends. Non-standard residues stand in square brackets, D forms with d. Residues, ends and D or L forms follow the SMILES beside them. No end group written: not given here. X1 = CC(=O)NC(C(=O)OC(C(C)C)C(N[*:1])C(=O)[*:2])C(O)C(C)C; Phe(4-Me) = Cc1ccc(C[C@H](N)C(=O)O)cc1; 1Nal = N[C@@H](Cc1cccc2ccccc12)C(=O)O; PhLac = O=C(O)[CH](O)Cc1ccccc1; NMeT = CN[CH](C(=O)O)[CH](C)O; NMeA = CN[CH](C)C(=O)O; NMeDha = C=C(NC)C(=O)O

Experiments:
ADGRG2-ΔGPS-β = biological target: T1, ADGRG2-ΔGPS-β (Mus musculus, UniProt Q8CJ12); test: GloSensor cAMP assay, HEK293 transfected with ADGRG2-ΔGPS-β; assay type: cell-based; conditions: cAMP Glosensor; for EC50 compared with wildtype p15 or other mutants: concentration-response curves, ADGRG2-ΔGPS-β; for EC50: HEK293 transfected with ADGRG2-ΔGPS-β, increasing peptide concentration, repeated six times
T1 construct: the entire ECD (including the entire GPS motif) was removed (ADGRG2-ΔGPS-β); expressed in transfected cells; host or cells: HEK293
T1 sequence (Q8CJ12 618-1009 limits assumed, stated change not applied): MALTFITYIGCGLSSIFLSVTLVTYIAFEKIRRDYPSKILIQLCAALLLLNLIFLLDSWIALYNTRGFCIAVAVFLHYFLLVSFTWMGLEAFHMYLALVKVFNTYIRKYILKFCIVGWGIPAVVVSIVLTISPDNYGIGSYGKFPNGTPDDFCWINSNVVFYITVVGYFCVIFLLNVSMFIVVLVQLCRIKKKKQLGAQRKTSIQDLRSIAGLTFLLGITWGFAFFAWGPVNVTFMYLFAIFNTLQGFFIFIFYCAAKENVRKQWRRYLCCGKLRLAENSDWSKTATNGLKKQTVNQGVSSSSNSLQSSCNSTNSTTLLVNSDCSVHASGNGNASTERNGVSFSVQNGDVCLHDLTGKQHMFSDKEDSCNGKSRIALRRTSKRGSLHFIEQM
Source text: (§1) Wildtype ADGRG2 full-length (ADGRG2-FL) was cloned from mouse total cDNA libraries using the following primers: forward, […]; reverse, […], and then ADGRG2-FL, ADGRG2 C-terminal truncation mutant (ADGRG2-β), and ADGRG2-ΔGPS-β (the entire ECD of ADGRG2 was deleted) were subcloned into the pcDNA3.1 expression vector. The ADGRG2-ΔGPS-β mutants (T610A, Y611A, C614A, S661A, W662A, I663A, L665A, Y666A，N667A, F671A, L679A, L683A, I730A, V731A, F741A, F747A, W757A, I758A, N759A, S760A, V762A, F764A, Y765A, V768A, V769A, F772A, V774A, W824A, F826A, F828A, F829A, V834A, V836A, F838A, M839A, I844A, F845A) were generated using a QuikChange Mutagenesis Kit (Stratagene). All mutations were verified by DNA sequencing.
(§2) Human embryonic kidney 293 (HEK293) cells were maintained in Dulbecco’s modified Eagle’s medium supplemented with 10% fetal bovine serum, penicillin (100 IU/ml), and streptomycin (100 μg/ml) as described ([6], [38]). For receptor or other protein expression, plasmids carrying the desired genes were transfected into cells using Lipofectamine 2000 (Invitrogen).
(§3) The Glosensor cAMP assay was performed as described ([6], [39], [40]). HEK293 cells were transfected with the GloSensor plasmid and the desired expression plasmids in 24-well dishes. Twenty-four hours after transfection, the cells were plated on 96-well plates at a cell density of 20,000 cells/well. The cells were maintained in Dulbecco’s modified Eagle’s medium for another 24 h, washed with PBS, and then incubated with 100 μl of solution containing 10% fetal bovine serum, 2% (v/v) GloSensor cAMP reagent, and 88% CO2-independent medium in each well for 2 h. The cAMP signal was examined using a luminescence counter (Mithras LB 940).

ADGRG2 = test: CalfluxVTN Ca2+ assay; assay type: cell-based, mouse; conditions: Gq/11 selective inhibitor
Method: For the Ca^2+ assays, HEK293 cells in 24-well dishes were cotransfected with plasmids encoding ADGRG2 or its mutants, CalfluxVTN constructs were used at a 6:1 ratio. Empty vector pcDNA3.1(+) was used to normalize the total amount of transfected plasmid DNA. The transfection and CalfluxVTN Ca^2+ assays were performed as previously reported ([28], [29], [41]) with minor modifications. In brief, 24 h post transfection, cells were harvested and distributed in 96-well flat-bottomed white microplates. After another 24 h, the cells were processed accordingly and then were added with the Nluc substrate furimazine (5 μM). The BRET signal was calculated by measuring the ratio of the light emitted by the Venus reporter (535 nm) relative to light emitted by the Nluc reporter (475 nm). The average baseline value (basal BRET ratio) recorded prior to agonist stimulation was subtracted from the experimental BRET signal values to obtain the ΔBRET ratio.

ADGRG2-FL = biological target: T2, ADGRG2-FL (Mus musculus, UniProt Q8CJ12); test: GloSensor cAMP assay, HEK293 transfected with ADGRG2-FL; assay type: cell-based; conditions: for p15 activity after alanine substitution (cAMP level): alanine scanning, 100 μM peptide, HEK293 ADGRG2-FL, Glosensor, compared with p15-WT, repeated six times; for EC50: HEK293 transfected with ADGRG2-FL, increasing peptide concentration, cAMP Glosensor, repeated 6 times
T2 construct: Wildtype ADGRG2 full-length (ADGRG2-FL) was cloned from mouse total cDNA libraries; expressed in transfected cells; host or cells: HEK293
T2 sequence (Q8CJ12 38-995 isoform Q8CJ12-3 limits assumed): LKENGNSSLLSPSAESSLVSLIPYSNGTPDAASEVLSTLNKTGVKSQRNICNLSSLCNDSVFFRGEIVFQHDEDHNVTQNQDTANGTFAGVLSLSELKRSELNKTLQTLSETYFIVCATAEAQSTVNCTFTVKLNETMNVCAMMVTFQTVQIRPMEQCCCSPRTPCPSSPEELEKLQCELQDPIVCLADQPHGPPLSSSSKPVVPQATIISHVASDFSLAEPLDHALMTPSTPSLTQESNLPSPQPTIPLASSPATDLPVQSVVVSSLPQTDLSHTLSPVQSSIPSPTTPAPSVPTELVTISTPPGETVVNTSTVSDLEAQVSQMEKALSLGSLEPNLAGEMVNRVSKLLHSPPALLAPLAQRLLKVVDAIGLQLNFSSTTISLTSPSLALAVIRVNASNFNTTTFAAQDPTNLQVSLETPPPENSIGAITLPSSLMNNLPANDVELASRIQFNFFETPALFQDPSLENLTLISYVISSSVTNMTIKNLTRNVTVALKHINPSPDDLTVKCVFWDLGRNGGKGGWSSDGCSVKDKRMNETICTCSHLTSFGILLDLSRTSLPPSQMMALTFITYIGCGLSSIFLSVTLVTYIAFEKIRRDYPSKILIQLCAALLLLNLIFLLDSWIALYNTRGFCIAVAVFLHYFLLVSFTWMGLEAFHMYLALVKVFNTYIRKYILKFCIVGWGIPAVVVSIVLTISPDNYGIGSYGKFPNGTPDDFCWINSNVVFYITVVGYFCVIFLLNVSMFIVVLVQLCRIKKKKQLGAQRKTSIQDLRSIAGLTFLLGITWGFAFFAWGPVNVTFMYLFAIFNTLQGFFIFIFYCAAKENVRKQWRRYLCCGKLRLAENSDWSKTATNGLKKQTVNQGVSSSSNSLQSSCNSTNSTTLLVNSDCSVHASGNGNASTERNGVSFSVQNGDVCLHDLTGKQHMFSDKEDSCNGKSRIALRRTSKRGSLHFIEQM
Source text: as §1, §2, §3

[1] = biological target: Rluc-ADGRG2-ΔGPS-β wildtype (mouse)

EC50 compared with wildtype p15 or other mutants (ADGRG2-ΔGPS-β): lower EC50 value than wildtype p15
Molecule: CC[C@H](C)[C@H](NC(=O)CNC(=O)[C@H](Cc1cccc2ccccc12)NC(=O)[C@H](CO)NC(=O)[C@@H](N)[C@@H](C)O)C(=O)N[C@@H](CC(C)C)C(=O)N[C@@H](CC(C)C)C(=O)N[C@@H](CC(=O)O)C(=O)N[C@@H](CC(C)C)C(=O)N[C@@H](CO)C(=O)N[C@@H](CCCNC(=N)N)C(=O)N[C@H](C(=O)N[C@@H](CO)C(=O)N[C@@H](CC(C)C)C(=O)N1CCC[C@H]1C(=O)O)[C@@H](C)O [F3(1-Nal)] (H-TS[1Nal]GILLDLSRTSLP-OH)

EC50 compared with wildtype p15 or other mutants (ADGRG2-ΔGPS-β): lower EC50 value than wildtype p15
Molecule: CC[C@H](C)[C@H](NC(=O)CNC(=O)[C@H](Cc1ccc(C)cc1)NC(=O)[C@H](CO)NC(=O)[C@@H](N)[C@@H](C)O)C(=O)N[C@@H](CC(C)C)C(=O)N[C@@H](CC(C)C)C(=O)N[C@@H](CC(=O)O)C(=O)N[C@@H](CC(C)C)C(=O)N[C@@H](CO)C(=O)N[C@@H](CCCNC(=N)N)C(=O)N[C@H](C(=O)N[C@@H](CO)C(=O)N[C@@H](CC(C)C)C(=O)N1CCC[C@H]1C(=O)O)[C@@H](C)O [F3Phe(4-Me)] (H-TS[Phe(4-Me)]GILLDLSRTSLP-OH)

EC50 (ADGRG2-ΔGPS-β): 4.7 µM
Molecule: CC[C@H](C)[C@H](NC(=O)CNC(=O)[C@H](Cc1cccc2ccccc12)NC(=O)[C@H](CO)NC(=O)[C@@H](N)C(C)C)C(=O)N[C@@H](CC(C)C)C(=O)N[C@@H](CC(C)C)C(=O)N[C@@H](CC(=O)O)C(=O)N[C@@H](CC(C)C)C(=O)N[C@@H](CO)C(=O)N[C@@H](CCCNC(=N)N)C(=O)N[C@H](C(=O)N[C@@H](CO)C(=O)N[C@@H](CC(C)C)C(=O)N1CCC[C@H]1C(=O)O)[C@@H](C)O [T1V/F3(1-Nal)] (H-VS[1Nal]GILLDLSRTSLP-OH)
EC50 compared with wildtype p15 or other mutants (ADGRG2-ΔGPS-β): significant lower EC50 than other mutants

Molecule: C=C1C(=O)NC(C)C(=O)N(C)C(C)C(=O)NC(C(OC(=O)C(NC(C)=O)C(O)C(C)C)C(C)C)C(=O)N(C)C(C(C)OC)C(=O)OC(C)C(NC(C)=O)C(=O)OC(Cc2ccccc2)C(=O)N1C (centres unmarked) [YM-254890] (Ac-T[PhLac][NMeDha]A[NMeA][X1][NMeT](Me); ester 1-C; configuration not given here)
inhibition of p15-elicited rise in intracellular calcium (ADGRG2): inhibited

p15 activity after alanine substitution (cAMP level) (ADGRG2-FL): greatly impaired p15 activity
Molecule: F3A: p15 alanine-scan mutant F3A (TSAGILLDLSRTSLP)

EC50 of cAMP accumulation (GloSensor assay), HEK293 cells transfected with ADGRG2-ΔGPS-β, increasing concentrations of VPM-p15 (without FITC) [1]: 1.41 µM
fold change of the EC50 of cAMP accumulation (GloSensor assay) against the wildtype p15 peptide, ADGRG2-ΔGPS-β in HEK293 cells [1]: 170 fold
Molecule: FITC-conjugated VPM-p15 (ADGRG2 Stachel peptide p15 T1V/F3Phe(4-Me))

p15 activity after alanine substitution (cAMP level) (ADGRG2-FL): greatly impaired p15 activity
Molecule: R11A: p15 alanine-scan mutant R11A (TSFGILLDLSATSLP)

EC50 (ADGRG2-FL): 274 µM
Molecule: TSFGILLDLSRTSAP [L14A]

EC50 (ADGRG2-FL): 175 µM
EC50 (ADGRG2-ΔGPS-β): 243 µM
Molecule: TSFGILLDLSRTSLP [p15, reference compound]

EC50 compared with wildtype p15 or other mutants (ADGRG2-ΔGPS-β): lower EC50 value than wildtype p15
Molecule: VSFGILLDLSRTSLP [T1V]

cAMP accumulation (GloSensor assay), HEK293 cells transfected with ADGRG2-ΔGPS-β, 100 μM peptide, against wildtype p15 [1]: 3 fold
Molecule: VSFGILLDLSRTSLP [ADGRG2 Stachel peptide p15 T1V]
